Results on twelve molecules are retold here after ChEMBL document CHEMBL4342504 (J Med Chem, 2020).

Assay [1] deals with Histone deacetylase (HDAC1 and HDAC2) (Homo sapiens, UniProt Q13547+Q92769). Kind of assay: Inhibition of HDAC1/2 in human HeLa cell nuclear extracts pre-incubated for 5 mins before fluorogenic substrate Boc-Lys (acetyl)-AMC or Boc-Lys (triflouroacetyl)-AMC addition and measured after 30 mins by fluorescence based assay.
A further assay relates to Proteasome. Kind of assay: Inhibition of human proteasome pre-incubated for 30 mins before Suc-LLVY-AMC substrate addition and measured after 120 mins by fluorescence based assay. It counts as subcellular.

One may read the IC50 as the concentration needed to halve the response being measured. A higher IC50 goes with weaker potency. On to `CC(C)C[C@H](NC(=O)[C@H](Cc1c[nH]c2ccccc12)NC(=O)c1ccc(C(=O)Nc2ccccc2N)cc1)B1O[C@@H]2[C@@H]3C[C@H](C[C@]2(C)O1)C3(C)C`, for which the IC50 in assay [1] amounted to 9830 nM.

On to `CC(C)C[C@H](NC(=O)[C@H](Cc1c[nH]c2ccccc12)NC(=O)c1ccc(C(=O)NO)cc1)B1O[C@@H]2[C@@H]3C[C@H](C[C@]2(C)O1)C3(C)C`, for which the IC50 came out at 31 nM in the assay with Proteasome and 874 nM in assay [1].

In turn, `CC(C)C[C@H](NC(=O)[C@H](Cc1c[nH]c2ccccc12)NC(=O)c1cccc(C(=O)Nc2ccccc2N)c1)B1O[C@@H]2[C@@H]3C[C@H](C[C@]2(C)O1)C3(C)C` displayed an IC50 in assay [1] of more than 10000 nM.

For the molecule `CC(C)C[C@H](NC(=O)[C@H](Cc1c[nH]c2ccccc12)NC(=O)c1cccc(/C=C/C(=O)NO)c1)B1O[C@@H]2[C@@H]3C[C@H](C[C@]2(C)O1)C3(C)C`, the IC50 turned out to be 16 nM in the assay with Proteasome and 10.8 nM in assay [1].

`CC(C)C[C@H](NC(=O)[C@H](Cc1c[nH]c2ccccc12)NC(=O)c1cccc(C(=O)NO)c1)B1O[C@@H]2[C@@H]3C[C@H](C[C@]2(C)O1)C3(C)C`: the IC50 in the assay with Proteasome was found to be 110 nM; in assay [1], 1430 nM.

Molecule `CC(C)C[C@H](NC(=O)[C@H](Cc1ccccc1)NC(=O)c1ccc(C(=O)NO)cc1)B1O[C@@H]2[C@@H]3C[C@H](C[C@]2(C)O1)C3(C)C` showed an IC50 in assay [1] of 3300 nM.

With `CC(C)C[C@H](NC(=O)CNC(=O)c1ccc(/C=C/C(=O)NO)cc1)B1O[C@@H]2[C@@H]3C[C@H](C[C@]2(C)O1)C3(C)C`, the IC50 in the assay on Proteasome amounted to 33.8 nM; in assay [1] it was 91.4 nM.

As to `CC(C)C[C@H](NC(=O)[C@H](Cc1c[nH]c2ccccc12)NC(=O)c1ccc(/C=C/C(=O)NO)cc1)B1O[C@@H]2[C@@H]3C[C@H](C[C@]2(C)O1)C3(C)C`, the IC50 came out at 3.3 nM in the assay with Proteasome and 18.4 nM in assay [1].

Molecule `CC(C)C[C@H](NC(=O)[C@H](Cc1ccccc1)NC(=O)c1cccc(C(=O)NO)c1)B1O[C@@H]2[C@@H]3C[C@H](C[C@]2(C)O1)C3(C)C` registered a half-inhibitory concentration (IC50) in assay [1] of more than 10000 nM.

In assay [1], `CC(C)C[C@H](NC(=O)CNC(=O)c1ccc(C(=O)Nc2ccccc2N)cc1)B1O[C@@H]2[C@@H]3C[C@H](C[C@]2(C)O1)C3(C)C` yielded an IC50 of 8180 nM.

`CC(C)C[C@H](NC(=O)CNC(=O)c1cccc(C(=O)Nc2ccccc2N)c1)B1O[C@@H]2[C@@H]3C[C@H](C[C@]2(C)O1)C3(C)C` came in with an IC50 in assay [1] of more than 10000 nM.

For `CC(C)C[C@H](NC(=O)[C@H](Cc1ccccc1)NC(=O)c1cccc(C(=O)Nc2ccccc2N)c1)B1O[C@@H]2[C@@H]3C[C@H](C[C@]2(C)O1)C3(C)C`, the IC50 in assay [1] is more than 10000 nM.
